Patent US6800247B1, “Deactivants for dust mite allergens” (priority 1997, dated 2004)
Structures can show the parent of a compound that is named as a salt. Where two headings read alike, the source gives them in different places.

Key:
Format in all cases: biochemical
Der-f allergens [1] = molecular target: T1, Der-f allergens (Dermatophagoides farinae, UniProt P16311); design: Amount of Allergen remaining active after deactivant treatment: unit not given here
T1 construct: Dust is collected from Hoover™ vacuum cleaner bags and passed through a series of sieves down to 63 microns; from tissue; host or cells: house dust from vacuum cleaner bags, sieved to 63 microns
T1 sequence (P16311 99-321): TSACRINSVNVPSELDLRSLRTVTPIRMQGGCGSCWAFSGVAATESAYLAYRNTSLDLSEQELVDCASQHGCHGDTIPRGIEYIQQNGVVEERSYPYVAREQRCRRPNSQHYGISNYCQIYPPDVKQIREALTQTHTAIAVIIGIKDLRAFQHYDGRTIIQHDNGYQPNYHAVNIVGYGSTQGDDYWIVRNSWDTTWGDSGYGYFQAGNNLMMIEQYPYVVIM
Description: (§1) The ELISA protocol for Der-f and Der-p has been developed as follows as a measure of denaturing property for denaturants.
(§2) 1. Dust is collected from Hoover™ vacuum cleaner bags and passed through a series of sieves down to 63 microns.
(§3) 2. Clean petri dishes are labelled with the chemical to be tested (on the base). Three replicates are used for each treatment.
(§4) 3. Filter paper is used to line each dish and 0.2 g of dust is added to each dish onto the filter paper. The lid (or base, as dishes are inverted) is replaced and the dish is shaken to disperse the dust evenly over the filter paper.
(§5) 4. 2% aqueous solutions of deactivant were used except for the silver chloride composite where 0.05% was used instead. Immobilised tannic acid was used as a 1% dispersion. The hydrogenerated hop end was used at the 2% level (in the form of a 10% solution). Water-insoluble deactivants were emulsified with a sorbitone oleate surfactant (i.e. Tween). Hinokitol was used at 0.5% not 2%.
(§6) 5. The dust is sprayed with the corresponding treatment, 2 sprays are required for sufficient coverage (1 spray=1.5 ml).
(§7) 6. Leave uncovered at room temperature, in well aerated room, until filter paper is dry. This can take up to 4 hours.
(§8) 7. Empty dust in epindorfs labelled according to treatment.
(§9) 8. Add 1 ml of 5% Bovine Serum Albumen Phosphate Butter Saline—Tween BSA-PBS-T to each epindorf (5 times the weight of dust) (20 ml of BSA-PBS-T=1 g of BSA in 20 ml of PBS-T).
(§10) 9. Leave overnight in a refrigerator.
(§11) 10. Centrifuge for 5 minutes at 13,000 rpm.
(§12) 11. Decant the supernatant into a new epindorf labelled according to treatment.
(§13) 12. Centrifuge again for 5 minutes at 13,000 rpm.
(§14) 13. Make up dilutions of 1:10 and 1:100 by adding 100 μl of neat solution to 900 μl of 1% BSA-PBS-T (1:10). This is repeated using 100 μl of 1:10 dilution and add to 900 μl of 1% BSA-PBS-T for 1:100 dilution.
(§15) ELISA Protocol 2 for Der-f and Der-p: Indoor Biotechnologies
(§16) 1. Prepare samples and dilutions as in protocol
(§17) 2. Prepare 500 ml of 50 mM carbonate/bicarbonate buffer by dissolving 0.795 g Na2CO3 and 1.465 g NaHCO3 in 500 ml of distilled water. Check the pH is at 9.6. (This solution is kept in the refrigerator in a conical flask).
(§18) 11 ml of carbonate/bicarbonate buffer is added to the dispensing tray.
(§19) 11 μl of Der-f1 or Der-p1 monoclonal antibody
(§20) (Stored in freezer, epindorf in use is in the refrigerator) is added to the buffer. To ensure that all the antibody is removed from the tip, wash out the pipette tip by sucking up and down I the buffer solution, gently stirring to mix thoroughly.
(§21) 4. Pipette 100 μl of the antibody solution into each well of the microtiter plate, cover with a plate sealer and leave overnight at 4° C.
(§22) 5. Empty the plate by quickly inverting it over the sink, then dry by banging on a stack of paper towels.
(§23) 6. Add 200 μl of wash buffer to each well: PBS/0/05% tween (PBS-T)
(§24) 7. Repeat stages 5 and 6 once more (making a total of 2 washes).
(§25) 8. Make sure all the wells are dry, then add 100 μl of 1% BSA-PBS-T. Replace the plate sealer and incubate for 1 hour at room temperature*.
(§26) 9. Repeat steps 5 to 7 (2 washes).
(§27) This is mixed thoroughly.
(§28) 11. Add 100 μl aliquots of the allergen sample to the plate along with the standard allergen samples for the reference curve in duplicate. The standards usually go in the first two columns on the left hand side, with the least concentrated on top. Incubate for 1 hour.
(§29) 12. Follow stages 5 to 6, completing a total of 5 washes.
(§30) 13. Pour 11 ml of 1% BSA-PBS-T(0.11 g of BSA to 11 ml of PBS-T) to the dispensing tray. Add 11 μl of the biotinylated monoclonal antibody (refrigerator) and mix thoroughly.
(§31) 14. Pipette 100 μl into each well and incubate for 1 hour at room temperature.
(§32) 15. Empty plate and wash as described in stage 12. (5 washes).
(§33) 16. Add 11 μl of Streptavidin (freezer) to 11 ml of 1%BSA-PBS-T. Pipette 100 μl into each well and incubate for 30 minutes. Reserve any remaining solution in a vial.
(§34) 17. Empty plate and wash as described in stage 12 (5 washes).

Der-f allergens [2] = molecular target: T1, Der-f allergens; settings: for Ratio of actives remaining after deactivant treatment over those remaining after tannic acid treatment: Examples 48-55, tested as above and compared with tannic acid
Description: as §1, §2, §3, §4, §5, §6, §7, §8, §9, §10, §11, §12, §13, §14, §15, §16, §17, §18, §19, §20, §21, §22, §23, §24, §25, §26, §27, §28, §29, §30, §31, §32, §33, §34

Der-p allergens = molecular target: T2, Der-p allergens (Dermatophagoides pteronyssinus, UniProt P08176); assay: Deactivation of Der-p allergens (ELISA protocol), summary statement
T2 construct: Dust is collected from Hoover™ vacuum cleaner bags and passed through a series of sieves down to 63 microns; from tissue; host or cells: house dust from vacuum cleaner bags, sieved to 63 microns
T2 sequence (P08176 99-320): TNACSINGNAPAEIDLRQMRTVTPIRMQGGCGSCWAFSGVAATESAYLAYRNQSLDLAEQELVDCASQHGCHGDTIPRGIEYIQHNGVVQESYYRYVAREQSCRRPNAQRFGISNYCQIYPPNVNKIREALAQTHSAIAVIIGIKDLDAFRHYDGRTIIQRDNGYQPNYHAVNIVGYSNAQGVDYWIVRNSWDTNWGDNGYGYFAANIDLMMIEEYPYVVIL
Description: The test procedure in Examples 1 to 55 is as follows and is known as the ELISA protocol.
as §1, §15, §19

[3] = Der-f, 0.2 g sieved house dust sprayed with 2% aqueous deactivant (AgCl composite 0.05%, immobilised tannic acid 1%, hinokitol 0.5%)
[4] = Der-f, compared with vacuuming only, no deactivant, 2% deactivant (AgCl composite 0.05%, immobilised tannic acid 1%, hinokitol 0.5%)

## CCCOCC(C)O (centres unmarked) [1-propoxy-propanol-2]
Der-f allergens [1]
  Ratio of remaining active allergen after Deactivant/Tannic Acid Treatment: 2.194
Der-f allergens [1]; [3]
  Amount of Allergen remaining active after deactivant treatment: 3950
Der-f allergens [2]; [4]
  Amount of active Allergen remaining after deactivant treatment: 1233

## NC(N)=O [Urea, urea]
Der-f allergens [1]
  Ratio of remaining active allergen after Deactivant/Tannic Acid Treatment: 2.500
Der-f allergens [1]; [3]
  Amount of Allergen remaining active after deactivant treatment: 3750

## O=C1C=CC(=O)O1 [Maleic anhydride, maleic anhydride]
Der-f allergens [1]
  Ratio of remaining active allergen after Deactivant/Tannic Acid Treatment: 0.875
Der-f allergens [1]; [3]
  Amount of Allergen remaining active after deactivant treatment: 1312.5
Der-f allergens [2]; [4]
  Amount of active Allergen remaining after deactivant treatment: 783
Der-f allergens [2]
  Ratio of actives remaining after deactivant treatment over those remaining after tannic acid treatment: 1.0

## CN1CCCC1=O [N-methyl pyrrolidone, N-methylpyrrolidone]
Der-f allergens [1]
  Ratio of remaining active allergen after Deactivant/Tannic Acid Treatment: 1.362
Der-f allergens [1]; [3]
  Amount of Allergen remaining active after deactivant treatment: 1600
Der-f allergens [2]
  Ratio of actives remaining after deactivant treatment over those remaining after tannic acid treatment: 4.0

## Cc1ccc(C(C)C)c(O)c1 [Thymol, 6-isopropyl-m-cresol]
Der-f allergens [1]
  Ratio of remaining active allergen after Deactivant/Tannic Acid Treatment: 0.523
Der-f allergens [1]; [3]
  Amount of Allergen remaining active after deactivant treatment: 725
Der-f allergens [2]; [4]
  Amount of active Allergen remaining after deactivant treatment: 1500
Der-f allergens [2]
  Ratio of actives remaining after deactivant treatment over those remaining after tannic acid treatment: 4.0

## O=CCCCC=O [Glutaraldehyde, qlutaraldehyde]
Der-f allergens [2]; [4]
  Amount of active Allergen remaining after deactivant treatment: 816
Der-f allergens [2]
  Ratio of actives remaining after deactivant treatment over those remaining after tannic acid treatment: 1.5
Der-p allergens
  Effectiveness against Der-p allergens: effective against Der-p allergens only

## O=C([O-])CS.[K+] [Potassium thioglycolate, potassium thioglycolate]
Der-f allergens [2]; [4]
  Amount of active Allergen remaining after deactivant treatment: 3092
Der-p allergens
  Effectiveness against Der-p allergens: effective against Der-p allergens only

## CCCCC(CC)COC(=O)CC(C(=O)OCC(CC)CCCC)S(=O)(=O)[O-].[Na+] (centres unmarked) [Aerosol OT]
Der-f allergens [1]
  Ratio of remaining active allergen after Deactivant/Tannic Acid Treatment: 1.298
Der-f allergens [1]; [3]
  Amount of Allergen remaining active after deactivant treatment: 1525
Der-f allergens [2]; [4]
  Amount of active Allergen remaining after deactivant treatment: 4494

## cyclodextrin
Der-f allergens [1]
  Ratio of remaining active allergen after Deactivant/Tannic Acid Treatment: 2.265
Der-f allergens [1]; [3]
  Amount of Allergen remaining active after deactivant treatment: 3850

## O=C1c2ccccc2C(=O)c2ccccc21 [Anthraquinone sodium salt, the sodium salt of anthraquinone]
Der-f allergens [1]
  Ratio of remaining active allergen after Deactivant/Tannic Acid Treatment: 0.765
Der-f allergens [1]; [3]
  Amount of Allergen remaining active after deactivant treatment: 1530

## N.N.O=S(=O)(O)O [Ammonium sulphate, ammonium sulphate]
Der-f allergens [1]
  Amount of Allergen remaining active after deactivant treatment: 2750
  Ratio of remaining active allergen after Deactivant/Tannic Acid Treatment: 1.618
Der-f allergens [2]
  Amount of active Allergen remaining after deactivant treatment: 2325

## aluminium chlorohydrate
Der-f allergens [1]
  Ratio of remaining active allergen after Deactivant/Tannic Acid Treatment: 2.233
Der-f allergens [1]; [3]
  Amount of Allergen remaining active after deactivant treatment: 1675
Der-f allergens [2]; [4]
  Amount of active Allergen remaining after deactivant treatment: 978

## C=CCc1cc(OC)c2c(c1OC)OCO2 [Parsley Camphor]
Der-f allergens [1]; [3]
  Amount of Allergen remaining active after deactivant treatment: 1225
Der-f allergens [1]; Der-f, ratio below 1 = better than tannic acid
  Ratio of remaining active allergen after Deactivant/Tannic Acid Treatment: 0.883
Der-f allergens [2]; [4]
  Amount of active Allergen remaining after deactivant treatment: 2581

## O=C(NCO)N(CO)C1(CO)C(=O)NC(=O)N1CO (centres unmarked) [Germall II, diazolidinylurea]
Der-f allergens [1]
  Ratio of remaining active allergen after Deactivant/Tannic Acid Treatment: 0.685
Der-f allergens [1]; [3]
  Amount of Allergen remaining active after deactivant treatment: 950
Der-f allergens [2]
  Ratio of actives remaining after deactivant treatment over those remaining after tannic acid treatment: 1.5

## CC(C)c1cccc(=O)c(O)c1 [Hinokitol, β-thujaplicin]
Der-f allergens [1]
  Ratio of remaining active allergen after Deactivant/Tannic Acid Treatment: 1.533
Der-f allergens [1]; [3]
  Amount of Allergen remaining active after deactivant treatment: 3065
Der-f allergens [2]; [4]
  Amount of active Allergen remaining after deactivant treatment: 2058

## O=C1O[C@H]([C@@H](O)CO)C(O)=C1O [L-Ascorbic Acid, L-ascorbic acid]
Der-f allergens [1]
  Ratio of remaining active allergen after Deactivant/Tannic Acid Treatment: 1.333
Der-f allergens [1]; [3]
  Amount of Allergen remaining active after deactivant treatment: 2000
Der-f allergens [2]; [4]
  Amount of active Allergen remaining after deactivant treatment: 1438

## CCCCCCCCCCCCCCCC[N+](C)(C)C.[Cl-] [hexadecyltrimethylammonium chloride]
Der-f allergens [1]
  Ratio of remaining active allergen after Deactivant/Tannic Acid Treatment: 2.264
Der-f allergens [1]; [3]
  Amount of Allergen remaining active after deactivant treatment: 4075
Der-f allergens [2]; [4]
  Amount of active Allergen remaining after deactivant treatment: 2863

## N=C(NCCCCCCNC(=N)NC(=N)Nc1ccc(Cl)cc1)NC(=N)Nc1ccc(Cl)cc1 [Chlorohexidine, 1,1′-hexamethylenebis [5-(4-chlorophenyl)]-biguanide]
Der-f allergens [1]
  Ratio of remaining active allergen after Deactivant/Tannic Acid Treatment: 0.991
Der-f allergens [1]; [3]
  Amount of Allergen remaining active after deactivant treatment: 1412.5
Der-f allergens [2]; [4]
  Amount of active Allergen remaining after deactivant treatment: 2281
Der-f allergens [2]
  Ratio of actives remaining after deactivant treatment over those remaining after tannic acid treatment: 3.0
